The subject of one assay is Biomphalaria glabrata. Put plainly: Molluscicidal activity against Biomphalaria glabrata at 200 ppm. It counts as functional, organism-based.
Assay [1] in a line: Inhibition of yeast alpha-glucosidase. More on the design: species or system Saccharomyces cerevisiae.

≈ marks a conversion by molar mass, not a printed value. Calls of active or inactive are those of the source. No cut-off for these calls is given here.

By IC50 is commonly meant the midpoint of a concentration-inhibition curve. A higher IC50 goes with lower potency. As to `COc1ccc(/C=C/c2cc(O)cc(O[C@@H]3O[C@H](CO)[C@@H](O)[C@H](O)[C@H]3O)c2)cc1`, in the assay on Biomphalaria glabrata, the outcome was inactive. Moreover, the IC50 in assay [1] was determined as 280 µg/mL (≈ 692 µM).

Consider `COc1ccc(/C=C/c2cc(O)cc(O[C@@H]3O[C@H](CO)[C@@H](O)[C@H](O)[C@H]3O)c2)cc1O` [RHAPONTIN], for which the outcome in the assay with Biomphalaria glabrata was inactive. In assay [1], this molecule had a half-maximal inhibitory concentration (IC50) of 600 µg/mL (≈ 1430 µM).

The values are drawn from ChEMBL document CHEMBL1158976, “Efficient Isolation of Glycosidase Inhibitory Stilbene Glycosides from Rheum palmatum” (J Nat Prod, 1991).
